pIC50: −log10 of the molar value.
How the values were obtained:
Influenza A virus [1] = experiment: Antiviral activity against Influenza A virus (A/duck/Tsukuba/67/2005(H1N1)) infected in MDCK cells preincubated for 1 hr followed by infection measured after 19 to 20 hrs by galactosidase-based fluorescence assay and peroxidase-based chromogenic assay; assay type: functional, organism-based
Influenza A virus [2] = experiment: Antiviral activity against Influenza A virus (A/mallard/Hokkaido/24/2009(H5N1)) infected in MDCK cells preincubated for 1 hr followed by infection measured after 19 to 20 hrs by galactosidase-based fluorescence assay and peroxidase-based chromogenic assay; assay type: functional, organism-based
Influenza A virus [3] = experiment: Antiviral activity against Influenza A virus (A/duck/Tsukuba/28/2005(H6N2)) infected in MDCK cells preincubated for 1 hr followed by infection measured after 19 to 20 hrs by galactosidase-based fluorescence assay and peroxidase-based chromogenic assay; assay type: functional, organism-based
Influenza A virus [4] = experiment: Antiviral activity against Influenza A virus (A/duck/Tsukuba/394/2005(H5N3)) infected in MDCK cells preincubated for 1 hr followed by infection measured after 19 to 20 hrs by galactosidase-based fluorescence assay and peroxidase-based chromogenic assay; assay type: functional, organism-based
Influenza A virus [5] = experiment: Antiviral activity against Influenza A virus (A/duck/Tsukuba/20/2007(H8N4)) infected in MDCK cells preincubated for 1 hr followed by infection measured after 19 to 20 hrs by galactosidase-based fluorescence assay and peroxidase-based chromogenic assay; assay type: functional, organism-based
Influenza A virus [6] = experiment: Antiviral activity against Influenza A virus A/duck/Chiba/13/06(H12N5) infected in MDCK cells preincubated for 1 hr followed by infection measured after 19 to 20 hrs by galactosidase-based fluorescence assay and peroxidase-based chromogenic assay; assay type: functional, organism-based
Influenza A virus [7] = experiment: Antiviral activity against Influenza A virus (A/duck/Shiga/8/2004(H4N6)) infected in MDCK cells preincubated for 1 hr followed by infection measured after 19 to 20 hrs by galactosidase-based fluorescence assay and peroxidase-based chromogenic assay; assay type: functional, organism-based
Influenza A virus [8] = experiment: Antiviral activity against Influenza A virus (A/duck/Tsukuba/700/2007(H7N7)) infected in MDCK cells preincubated for 1 hr followed by infection measured after 19 to 20 hrs by galactosidase-based fluorescence assay and peroxidase-based chromogenic assay; assay type: functional, organism-based
Influenza A virus [9] = experiment: Antiviral activity against Influenza A virus (A/duck/Tsukuba/28/2006(H3N8)) infected in MDCK cells preincubated for 1 hr followed by infection measured after 19 to 20 hrs by galactosidase-based fluorescence assay and peroxidase-based chromogenic assay; assay type: functional, organism-based
Influenza A virus [10] = experiment: Antiviral activity against Influenza A virus A/duck/Tsukuba/441/05(H11N9) infected in MDCK cells preincubated for 1 hr followed by infection measured after 19 to 20 hrs by galactosidase-based fluorescence assay and peroxidase-based chromogenic assay; assay type: functional, organism-based
Influenza A virus [11] = experiment: Antiviral activity against Influenza A virus (A/California/04/2009(H1N1)) infected in dog AX4 cells preincubated for 1 hr followed by infection measured after 19 to 20 hrs by galactosidase-based fluorescence assay and peroxidase-based chromogenic assay; assay type: functional, organism-based
Influenza A virus [12] = experiment: Antiviral activity against Influenza A virus (A/Narita/1/2009(H1N1)) infected in dog AX4 cells preincubated for 1 hr followed by infection measured after 19 to 20 hrs by galactosidase-based fluorescence assay and peroxidase-based chromogenic assay; assay type: functional, organism-based
Influenza A virus [13] = experiment: Antiviral activity against Influenza A virus A/Yamaguchi/20/06(H1N1) infected in dog AX4 cells preincubated for 1 hr followed by infection measured after 19 to 20 hrs by galactosidase-based fluorescence assay and peroxidase-based chromogenic assay; assay type: functional, organism-based
Influenza A virus [14] = experiment: Antiviral activity against Influenza A virus A/Kitakyushu/10/06(H1N1) infected in dog AX4 cells preincubated for 1 hr followed by infection measured after 19 to 20 hrs by galactosidase-based fluorescence assay and peroxidase-based chromogenic assay; assay type: functional, organism-based
Influenza A virus [15] = experiment: Antiviral activity against Influenza A virus (A/Aichi/75/2008(H3N2)) infected in dog AX4 cells preincubated for 1 hr followed by infection measured after 19 to 20 hrs by galactosidase-based fluorescence assay and peroxidase-based chromogenic assay; assay type: functional, organism-based
Influenza A virus [16] = experiment: Antiviral activity against Influenza A virus (A/Aichi/102/2008(H3N2)) infected in dog AX4 cells preincubated for 1 hr followed by infection measured after 19 to 20 hrs by galactosidase-based fluorescence assay and peroxidase-based chromogenic assay; assay type: functional, organism-based
Sialidase-3 = target: T1, Sialidase-3 (Homo sapiens, UniProt Q9UQ49); experiment: Inhibition of human Neu3 expressed in HEK293T cells using GM3 as substrate incubated for 30 mins by HPLC analysis; assay type: cell-based, HEK-293T
T1 sequence (Q9UQ49 whole entry): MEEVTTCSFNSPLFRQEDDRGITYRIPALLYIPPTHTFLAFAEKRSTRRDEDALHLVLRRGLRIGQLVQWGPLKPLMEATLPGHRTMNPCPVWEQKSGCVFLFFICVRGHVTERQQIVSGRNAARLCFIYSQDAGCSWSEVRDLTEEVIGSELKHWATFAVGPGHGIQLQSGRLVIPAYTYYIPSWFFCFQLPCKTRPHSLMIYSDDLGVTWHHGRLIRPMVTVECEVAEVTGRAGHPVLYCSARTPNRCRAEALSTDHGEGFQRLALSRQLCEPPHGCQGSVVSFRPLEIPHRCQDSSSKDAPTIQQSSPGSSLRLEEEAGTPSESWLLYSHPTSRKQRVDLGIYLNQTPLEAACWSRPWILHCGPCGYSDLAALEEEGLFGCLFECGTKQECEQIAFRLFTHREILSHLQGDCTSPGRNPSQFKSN

Sialidase-1 = Sialidase-1 (Homo sapiens, UniProt Q99519); experiment: Inhibition of human Neu1 expressed in HEK293T cells using 4MU-Neu5Ac as substrate incubated for 30 mins by HPLC analysis; assay type: cell-based, HEK-293T
Sialidase-4 [17] = target: T2, Sialidase-4 (Homo sapiens, UniProt Q8WWR8); experiment: Inhibition of human Neu4 expressed in HEK293T cells using 4MU-Neu5Ac as substrate incubated for 30 mins by HPLC analysis; assay type: cell-based, HEK-293T
T2 sequence (Q8WWR8 whole entry): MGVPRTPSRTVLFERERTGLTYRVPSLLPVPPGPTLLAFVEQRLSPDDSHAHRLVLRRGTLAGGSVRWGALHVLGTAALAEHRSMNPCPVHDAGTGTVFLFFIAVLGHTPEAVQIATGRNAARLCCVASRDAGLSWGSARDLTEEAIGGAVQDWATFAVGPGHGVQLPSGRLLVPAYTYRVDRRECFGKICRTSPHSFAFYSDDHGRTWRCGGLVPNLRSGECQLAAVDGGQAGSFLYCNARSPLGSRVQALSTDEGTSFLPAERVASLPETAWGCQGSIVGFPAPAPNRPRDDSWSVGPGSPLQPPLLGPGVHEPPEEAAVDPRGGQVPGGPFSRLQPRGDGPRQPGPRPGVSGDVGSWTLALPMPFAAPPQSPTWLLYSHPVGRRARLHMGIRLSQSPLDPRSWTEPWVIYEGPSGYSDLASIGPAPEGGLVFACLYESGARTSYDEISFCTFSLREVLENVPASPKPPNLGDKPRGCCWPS

Sialidase-4 [18] = target: T2, Sialidase-4; experiment: Inhibition of human Neu4 expressed in HEK293T cells using GM3 as substrate incubated for 30 mins by HPLC analysis; assay type: cell-based, HEK-293T
MDCK = experiment: Cytotoxicity against MDCK cells at 0.064 to 1000 uM incubated for 24 hrs by cell counting analysis; assay type: cell-based, Canis lupus familiaris; details: dog
[19] = Cytotoxicity against dog AX4 cells at 0.064 to 1000 uM incubated for 24 hrs by cell counting analysis; assay type: cell-based, Canis lupus familiaris; details: ax4, 24 h
Neuraminidase [20] = target: T3, Neuraminidase (Influenza A virus, UniProt B4URF0); experiment: Inhibition of Influenza A virus (A/duck/Tsukuba/67/2005(H1N1)) neuraminidase N1 activity using 4MU-Neu5Ac as substrate preincubated for 15 mins followed by substrate addition measured after 15 mins by fluorescence analysis
Neuraminidase [21] = target: T3, Neuraminidase; experiment: Inhibition of Influenza A virus (A/duck/Tsukuba/28/2005(H6N2)) neuraminidase N2 activity using 4MU-Neu5Ac as substrate preincubated for 15 mins followed by substrate addition measured after 15 mins by fluorescence analysis
Neuraminidase [22] = target: T3, Neuraminidase; experiment: Inhibition of Influenza A virus (A/duck/Tsukuba/394/2005(H5N3)) neuraminidase N3 activity using 4MU-Neu5Ac as substrate preincubated for 15 mins followed by substrate addition measured after 15 mins by fluorescence analysis

T3 sequence (B4URF0 whole entry): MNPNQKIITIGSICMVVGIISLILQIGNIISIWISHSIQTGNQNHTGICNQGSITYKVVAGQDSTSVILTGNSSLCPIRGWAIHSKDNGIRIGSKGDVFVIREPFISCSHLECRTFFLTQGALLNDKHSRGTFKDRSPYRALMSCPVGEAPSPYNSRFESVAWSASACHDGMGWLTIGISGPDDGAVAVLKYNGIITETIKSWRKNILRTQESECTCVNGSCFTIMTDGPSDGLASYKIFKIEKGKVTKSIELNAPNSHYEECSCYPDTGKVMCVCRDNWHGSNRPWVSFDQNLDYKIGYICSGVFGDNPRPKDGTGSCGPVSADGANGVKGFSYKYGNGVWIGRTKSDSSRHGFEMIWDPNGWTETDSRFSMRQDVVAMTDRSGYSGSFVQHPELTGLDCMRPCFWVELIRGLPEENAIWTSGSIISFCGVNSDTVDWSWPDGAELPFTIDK

CCC(CC)OC[C@@H]1CC(C(=O)O)=C[C@H](N)[C@H]1NC(C)=O
pIC50 (Influenza A virus [1]): 8.12
pIC50 (Influenza A virus [2]): 7.55
pIC50 (Influenza A virus [3]): 9.07
pIC50 (Influenza A virus [4]): 8.64
pIC50 (Influenza A virus [5]): 8.30
pIC50 (Influenza A virus [6]): 8.44
pIC50 (Influenza A virus [7]): 9.06
pIC50 (Influenza A virus [8]): 8.32
pIC50 (Influenza A virus [9]; Influenza A virus, MDCK): 8.26
pIC50 (Influenza A virus [10]): 7.89
pIC50 (Influenza A virus [11]): 9.52
pIC50 (Influenza A virus [12]): 9.55
pIC50 (Influenza A virus [13]): 8.77
pIC50 (Influenza A virus [14]): 5.41
pIC50 (Influenza A virus [15]): 10.15
pIC50 (Influenza A virus [16]): 10.40

CC(=O)N[C@H]1[C@H]([C@H](O)[C@H](O)CNC(=O)C2CC2)OC(C(=O)O)=C[C@@H]1NC(=N)N.O=C(O)C(F)(F)F
pIC50 (Sialidase-3): < 3.00
pIC50 (Sialidase-1): < 3.00
pIC50 (Sialidase-4 [17]): < 3.00
pIC50 (Sialidase-4 [18]): < 3.00
pIC50 (Influenza A virus [1]): 7.31
pIC50 (Influenza A virus [2]): 6.40
pIC50 (Influenza A virus [3]): 7.93
pIC50 (Influenza A virus [4]): 7.42
pIC50 (Influenza A virus [5]): 6.71
pIC50 (Influenza A virus [6]): 7.53
pIC50 (Influenza A virus [7]): 7.61
pIC50 (Influenza A virus [8]): 6.56
pIC50 (Influenza A virus [9]; Influenza A virus, MDCK): 6.79
pIC50 (Influenza A virus [10]): 6.52
pIC50 (Influenza A virus [11]): 8.22
pIC50 (Influenza A virus [12]): 8.31
pIC50 (Influenza A virus [13]): 7.56
pIC50 (Influenza A virus [14]): 6.97
pIC50 (Influenza A virus [15]): 8.87
pIC50 (Influenza A virus [16]): 8.90
Activity (MDCK): Non-toxic
Activity [19]: Non-toxic

CCCCC(=O)NC[C@@H](O)[C@@H](O)[C@@H]1OC(C(=O)O)=C[C@H](NC(=N)N)[C@H]1NC(C)=O.O=C(O)C(F)(F)F
pIC50 (Sialidase-3): < 3.00
pIC50 (Sialidase-1): < 3.15
pIC50 (Sialidase-4 [17]): < 3.15
pIC50 (Sialidase-4 [18]): < 3.15
pIC50 (Influenza A virus [1]): 5.65
pIC50 (Influenza A virus [2]): 5.08
pIC50 (Influenza A virus [3]): 6.35
pIC50 (Influenza A virus [4]): 5.23
pIC50 (Influenza A virus [5]): 5.25
pIC50 (Influenza A virus [6]): 4.59
pIC50 (Influenza A virus [7]): 5.96
pIC50 (Influenza A virus [8]): 5.30
pIC50 (Influenza A virus [9]; Influenza A virus, MDCK): 4.32
pIC50 (Influenza A virus [10]): 5.26
pIC50 (Influenza A virus [11]): 6.87
pIC50 (Influenza A virus [12]): 6.90
pIC50 (Influenza A virus [13]): 6.41
pIC50 (Influenza A virus [14]): 6.47
pIC50 (Influenza A virus [15]): 7.61
pIC50 (Influenza A virus [16]): 7.40
Activity (MDCK): Non-toxic
Activity [19]: Non-toxic

CC(=O)N[C@H]1[C@H]([C@H](O)[C@H](O)CO)OC(C(=O)O)=C[C@@H]1O [NEU5AC2EN]
pIC50 (Sialidase-3): 4.30
pIC50 (Neuraminidase [20]): 6.00
pIC50 (Neuraminidase [21]): 6.00
pIC50 (Neuraminidase [22]): 6.00

CC(=O)N[C@H]1[C@H]([C@H](O)[C@H](O)CO)OC(C(=O)O)=C[C@@H]1NC(=N)N [ZANAMIVIR]
pIC50 (Sialidase-1): < 3.00
pIC50 (Influenza A virus [1]): 8.56
pIC50 (Influenza A virus [2]): 7.81
pIC50 (Influenza A virus [3]): 8.19
pIC50 (Influenza A virus [4]): 7.92
pIC50 (Influenza A virus [5]): 8.03
pIC50 (Influenza A virus [6]): 7.54
pIC50 (Influenza A virus [7]): 7.96
pIC50 (Influenza A virus [8]): 7.23
pIC50 (Influenza A virus [9]; mdck): 7.78
pIC50 (Influenza A virus [10]): 7.19
